Laboratory results from patent US10703755B2, “Substituted purine derivative” (SUMITOMO DAINIPPON PHARMA CO., LTD., priority 2016, dated 2020).

Molecular target: human TLR7 (Homo sapiens (Human), UniProt Q9NYK1)
Assay: Test for evaluating the inhibition of the activation of human TLR7 (SEAP reporter, TLR7/NF-κB/SEAPorter HEK293 cell)
Format: cell-based
Conditions: R-848 200 nmol/L; for IC50: SEAP reporter; for inhibitory effect against TLR7 in the test for evaluating inhibition of the activation of TLR7: SEAP activity, result in words
In short: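 HEK293 cells stably expressing full-length human TLR7 and an NF-κB-driven SEAP reporter. They were grown in DMEM with 10% FBS and blasticidin, and seeded at 5×10^4 cells/well overnight at 37° C, 5% CO2. Inhibition of TLR7 activation was read as SEAP output.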

human TLR7, sequence (Q9NYK1 27-1049): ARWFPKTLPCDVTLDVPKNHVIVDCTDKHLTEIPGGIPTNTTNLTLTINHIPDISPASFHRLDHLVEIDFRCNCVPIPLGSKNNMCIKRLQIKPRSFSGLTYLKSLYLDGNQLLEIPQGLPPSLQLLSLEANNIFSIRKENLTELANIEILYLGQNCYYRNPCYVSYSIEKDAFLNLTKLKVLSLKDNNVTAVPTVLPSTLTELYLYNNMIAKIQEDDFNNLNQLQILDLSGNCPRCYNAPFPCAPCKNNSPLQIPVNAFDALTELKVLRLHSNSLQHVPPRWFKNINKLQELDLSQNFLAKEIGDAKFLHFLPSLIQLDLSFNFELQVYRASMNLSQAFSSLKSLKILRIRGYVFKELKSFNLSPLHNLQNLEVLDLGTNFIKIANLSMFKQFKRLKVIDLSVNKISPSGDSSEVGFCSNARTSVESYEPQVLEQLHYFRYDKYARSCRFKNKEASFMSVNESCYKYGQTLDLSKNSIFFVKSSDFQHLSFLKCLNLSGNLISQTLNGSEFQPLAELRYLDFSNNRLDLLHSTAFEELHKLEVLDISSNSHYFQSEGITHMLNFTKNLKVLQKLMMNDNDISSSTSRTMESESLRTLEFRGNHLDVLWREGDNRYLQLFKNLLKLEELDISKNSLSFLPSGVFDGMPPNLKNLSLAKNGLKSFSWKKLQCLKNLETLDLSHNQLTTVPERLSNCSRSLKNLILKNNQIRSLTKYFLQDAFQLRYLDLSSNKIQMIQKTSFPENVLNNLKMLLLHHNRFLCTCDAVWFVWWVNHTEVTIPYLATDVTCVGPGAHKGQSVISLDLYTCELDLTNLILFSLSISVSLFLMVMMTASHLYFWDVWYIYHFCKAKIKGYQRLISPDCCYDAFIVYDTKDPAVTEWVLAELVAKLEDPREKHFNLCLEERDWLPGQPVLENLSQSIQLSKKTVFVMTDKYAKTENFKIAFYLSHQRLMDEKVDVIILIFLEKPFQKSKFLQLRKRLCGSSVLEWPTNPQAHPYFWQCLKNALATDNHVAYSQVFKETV

IC50 [nM] | inhibitory effect against TLR7 in the test for evaluating inhibition of the activation of TLR7 | Compound
198 |  | CCOc1nc(C)c2nc(-c3cncc(F)c3)n(Cc3cnn(CCCN(C)C)c3)c2n1 [Example 245]
300 |  | CCOc1nc(C)c2nc(-c3cncc(F)c3)n(Cc3cnn(CCN4CCCC4)c3)c2n1 [Example 246]
85 |  | CCOc1nc(C)c2nc(-c3cncc(F)c3)n(Cc3cnn(CCCN4CCCC4)c3)c2n1 [Example 247]
248 |  | CCOc1nc(C)c2nc(-c3cncc(F)c3)n(Cc3cnn(CCN4CCOCC4)c3)c2n1 [Example 248]
100 |  | CCOc1nc(C)c2nc(-c3cncc(F)c3)n(Cc3cnn(CCCN4CCOCC4)c3)c2n1 [Example 249]
200 |  | COc1nc(C)c2nc(-c3cncc(F)c3)n(Cc3cnn(CCN(C)C)c3)c2n1 [Example 250]
180 |  | COc1nc(C)c2nc(-c3cncc(F)c3)n(Cc3cnn(CCCN(C)C)c3)c2n1 [Example 251]
169 |  | COc1nc(C)c2nc(-c3cncc(F)c3)n(Cc3ccc(CO)cc3F)c2n1 [Example 258]
28 | potent inhibitory effect against TLR7 | COc1nc(C)c2nc(-c3cncc(F)c3)n(Cc3ccc(CN(C)C)cc3F)c2n1 [Example 259, 1-(3-fluoro-4-{[8-(5-fluoropyridin-3-yl)-2-methoxy-6-methyl-9H-purin-9-yl]methyl}phenyl)-N,N-dimethylmethanamine]
18 | potent inhibitory effect against TLR7 | COc1nc(C)c2nc(-c3cncc(F)c3)n(Cc3ccc(CN4CCC4)cc3F)c2n1 [Example 260, 9-[4-(azetidin-1-ylmethyl)-2-fluorobenzyl]-8-(5-fluoropyridin-3-yl)-2-methoxy-6-methyl-9H-purine]
1160 |  | CCOC1CN(Cc2ccc(Cn3c(-c4cncc(F)c4)nc4c(C)nc(OC)nc43)c(F)c2)C1 [Example 261]
27 | potent inhibitory effect against TLR7 | CCOc1nc(C)c2nc(-c3cncc(F)c3)n(Cc3ccc(CN4CCN(C)CC4)cc3)c2n1 [Example 262]
102 |  | CCOc1nc(C)c2nc(-c3cncc(F)c3)n(Cc3ccc(CN4CCCC4)cc3)c2n1 [Example 263]
63 | potent inhibitory effect against TLR7 | CCOc1nc(C)c2nc(-c3cncc(F)c3)n(Cc3ccc(CN4CCCCC4)cc3)c2n1 [Example 264]
29 | potent inhibitory effect against TLR7 | CCOc1nc(C)c2nc(-c3cncc(F)c3)n(Cc3ccc(CN(CC)CC)cc3)c2n1 [Example 266]
27 |  | CCOc1nc(C)c2nc(-c3cncc(F)c3)n(Cc3cnn(CC4CCCNC4)c3)c2n1 (stereo not shown) [Example 268]
19 |  | CCOc1nc(C)c2nc(-c3cncc(F)c3)n(Cc3cnn(CC4CCCNC4)c3)c2n1 (stereo not shown) [Example 269]

IC50 [nM] | inhibitory effect against TLR7 in the test for evaluating inhibition of the activation of TLR7 | Compound
272 |  | CCOc1nc(C)c2nc(-c3cncc(F)c3)n(Cc3cnn(CC4CCNC4)c3)c2n1 (stereo not shown) [Example 270]
99 |  | CCOc1nc(C)c2nc(-c3cncc(F)c3)n(Cc3cnn(CC4CCNC4)c3)c2n1 (stereo not shown) [Example 271]
261 |  | CCOc1nc(C)c2nc(-c3cncc(F)c3)n(Cc3cnn(CC4CN(C)CCO4)c3)c2n1 (stereo not shown) [Example 272]
200 |  | CCOc1nc(C)c2nc(-c3cncc(F)c3)n(Cc3cnn(CC4CN(C)CCO4)c3)c2n1 (stereo not shown) [Example 273]
100 |  | CCOc1nc(C)c2nc(-c3cncc(F)c3)n(Cc3cnn(CC4COCCN4C)c3)c2n1 (stereo not shown) [Example 274]
24 | potent inhibitory effect against TLR7 | CCOc1nc(C)c2nc(-c3cncc(F)c3)n(Cc3cnn(CC4CCCN(C)C4)c3)c2n1 (stereo not shown) [Example 276]
23 | potent inhibitory effect against TLR7 | CCOc1nc(C)c2nc(-c3cncc(F)c3)n(Cc3cnn(CC4CCCN(C)C4)c3)c2n1 (stereo not shown) [Example 277]
72 | potent inhibitory effect against TLR7 | CCOc1nc(C)c2nc(-c3cncc(F)c3)n(Cc3cnn(CC4CCN(C)C4)c3)c2n1 (stereo not shown) [Example 278]
40 | potent inhibitory effect against TLR7 | CCOc1nc(C)c2nc(-c3cncc(F)c3)n(Cc3cnn(CC4CCN(C)C4)c3)c2n1 (stereo not shown) [Example 279]
3 | potent inhibitory effect against TLR7 | COc1nc(C)c2nc(-c3cncc(F)c3)n(Cc3ccc(CN4C[C@@H]5C[C@H]4CN5C)cc3F)c2n1 [Example 280, 9-(2-fluoro-4-{[(1S,4S)-5-methyl-2,5-diazabicyclo[2.2.1]hept-2-yl]methyl}benzyl)-8-(5-fluoropyridin-3-yl)-2-methoxy-6-methyl-9H-purine]
142 |  | CCOc1nc(C)c2nc(-c3cncc(F)c3)n(Cc3cnc(CC4CCN(C)CC4)cc3OC)c2n1 [Example 281]
8 | potent inhibitory effect against TLR7 | COc1nc(C)c2nc(-c3cncc(F)c3)n(Cc3ccc(C4CCN(C)CC4)cc3F)c2n1 [Example 282, 9-[2-fluoro-4-(1-methylpiperidin-4-yl)benzyl]-8-(5-fluoropyridin-3-yl)-2-methoxy-6-methyl-9H-purine]
21 | potent inhibitory effect against TLR7 | COc1nc(C)c2nc(-c3cncc(F)c3)n(Cc3ccc(CC4CCN(C)CC4)cc3F)c2n1 [Example 283]
3 | potent inhibitory effect against TLR7 | CCN1CCC(c2ccc(Cn3c(-c4cncc(F)c4)nc4c(C)nc(OC)nc43)c(F)c2)CC1 [Example 284, 9-[4-(1-ethylpiperidin-4-yl)-2-fluorobenzyl]-8-(5-fluoropyridin-3-yl)-2-methoxy-6-methyl-9H-purine]
26 | potent inhibitory effect against TLR7 | COc1nc(C)c2nc(-c3cncc(F)c3)n(Cc3ccc(OCC4CN(C)C4)cc3F)c2n1 [Example 286, 9-{2-fluoro-4-[(1-methylazetidin-3-yl)methoxy]benzyl}-8-(5-fluoropyridin-3-yl)-2-methoxy-6-methyl-9H-purine]
29 | potent inhibitory effect against TLR7 | CCN1CC(COc2ccc(Cn3c(-c4cncc(F)c4)nc4c(C)nc(OC)nc43)c(F)c2)C1 [Example 287]

Compound | IC50 [nM] | inhibitory effect against TLR7 in the test for evaluating inhibition of the activation of TLR7
CCOc1nc(C)c2nc(-c3cncc(F)c3)n(Cc3ccc(CN4[C@@H]5CC[C@H]4CN(C)C5)cc3)c2n1 [Example 265] | 57 | potent inhibitory effect against TLR7
COc1nc(C)c2nc(-c3cncc(F)c3)n(Cc3ccc(O[C@H]4C[C@H]5CC[C@@H](C4)N5C)cc3F)c2n1 [Example 285, 9-(2-fluoro-4-{[(3-endo)-8-methyl-8-azabicyclo[3.2.1]oct-3-yl]oxy}benzyl)-8-(5-fluoropyridin-3-yl)-2-methoxy-6-methyl-9H-purine] | 2 | potent inhibitory effect against TLR7
